In publication PMC11676098, “New Benzofuran–Pyrazole-Based Compounds as Promising Antimicrobial Agents: Design, Synthesis, DNA Gyrase B Inhibition, and In Silico Studies” (Pharmaceuticals, 2024):

Target: T1, E. coli DNA gyrase B (Escherichia coli, UniProt P0AES6)
T1 construct: gene gyrB
Assay: in vitro E. coli DNA gyrase enzyme inhibition assay (manufacturer's protocol)
Format: biochemical

Molecule N#Cc1c(-c2cn(-c3ccccc3)nc2-c2cc3ccccc3o2)c(C#N)c(=O)n2c1NCCN2 [compound 9, 8-(3-(Benzofuran-2-yl)-1-phenyl-1H-pyrazol-4-yl)-6-oxo-1,3,4,6-tetrahydro-2H-pyrido[1,2-b][1,2,4]triazine-7,9-dicarbonitrile] has an IC50 of 9.8 ± 0.21 µM.

Molecule CC(=O)n1c(C)nc2c(C#N)c(-c3cn(-c4ccccc4)nc3-c3cc4ccccc4o3)c(C#N)c(=O)n21 [compound 10, 3-Acetyl-7-(3-(benzofuran-2-yl)-1-phenyl-1H-pyrazol-4-yl)-3,5-dihydro-2-methyl-5-oxo-[1,2,4]triazolo[1,5-a]pyridine-6,8-dicarbonitrile] has an IC50 of 32.2 ± 0.1 µM.
